Data published in patent US8212022B2, “Effect of carbohydrate concentration on sucralose extraction efficiency” (Tate & Lyle Technology Limited, priority 2008, dated 2012).

Assay: Partition coefficient K of sucralose between ethyl acetate and water (equal volumes)
Format: physicochemical
Conditions: for partition coefficient, K: equal volumes of ethyl acetate and water
From the text: Unless the context indicates otherwise, in the specification and claims, the terms organic solvent, first organic solvent, second organic solvent, tetrachloro saccharide, trichloro saccharide, dichloro saccharide, salt, sucralose-6-ester, carbohydrate, and similar terms also include mixtures of such materials. The term saccharide includes monosaccharide, disaccharides, and polysaccharides. Solvent means a liquid that dissolves another material. An aqueous solvent is one in which water is the primary (greater than 50 vol % of the solvents present) or only solvent. Partition coefficient, K, of a carbohydrate between an organic solvent and water is the concentration of the carbohydrate in the organic phase divided by the concentration of the carbohydrate in the aqueous phase when equal volumes of organic solvent and water are used. […] Crystallization includes processes in which a solution is rendered saturated or supersaturated with respect to a dissolved component, and the formation of crystals of this component is achieved. The initiation of crystal formation can be spontaneous, or it can require the addition of seed crystals. Crystallization also describes the situation in which a solid or liquid material is dissolved in a solvent to yield a solution which is then rendered saturated or supersaturated so as to obtain crystals. Also, included in the term crystallization are the ancillary processes of washing the crystals with one or more solvents, drying the crystals, and harvesting the final product so obtained. Unless otherwise specified, all percentages are percentages by weight, all temperatures are in degrees Centigrade (degrees Celsius), and all solvent ratios are volume to volume.
Aqueous solutions of sucralose were prepared at various carbohydrate concentrations. An equal volume of ethyl acetate was then added to each solution and the two phases mixed thoroughly. After the two phases separated, the carbohydrate concentration in each phase was determined. The K value was calculated by dividing the concentration of sucralose in the ethyl acetate phase by the concentration of sucralose in the aqueous phase.

partition coefficient, K (initial concentration of sucralose in the aqueous phase about 5 wt %) | partition coefficient, K (initial concentration of sucralose in the aqueous phase about 15 wt %) | partition coefficient, K (initial concentration of sucralose in the aqueous phase about 16 wt %) | Structure (SMILES) | partition coefficient compared with sucralose (organic solvent such as ethyl acetate and water, equal volumes, same conditions as sucralose)
 |  |  | CC(=O)OC[C@H]1O[C@H](O[C@]2(CCl)O[C@H](CCl)[C@@H](O)[C@@H]2O)[C@H](O)[C@@H](O)[C@H]1Cl [sucralose-6-acetate] | larger that the corresponding value for sucralose
0.4 | about 1.1 | about 1.2 | OC[C@H]1O[C@H](O[C@]2(CCl)O[C@H](CCl)[C@@H](O)[C@@H]2O)[C@H](O)[C@@H](O)[C@H]1Cl [sucralose, 4,1′,6′-trichloro-4,1′,6′-trideoxygalactosucrose] | 
